In series [1] the test system is primary screen strain (yeast with hRpn11, UBP6 deleted). The series can be described thus: DMSO tolerance of the primary screen yeast strain, growth in microtiter plates. The series is classed as cell-based, Saccharomyces cerevisiae. The note with it: primary screen strain (FIG. 4A); concentrations of DMSO up to 1%; cell density monitored over 24 hours; sextuplicate. The source says:
(§1) In baker's yeast (S. cerevisiae), deletion of the endogenous yeast Rpn11 gene is lethal, but inhibition of Rpn11 deubiquitinating activity is not. Inhibition of Rpn11 activity is lethal only when a second deubiquitinase, UBP6, is deleted (FIG. 2A). Importantly, this synthetic lethal relationship is maintained in yeast harboring hRpn11 (FIG. 3). Thus, a selective inhibitor of human Rpn11 would be lethal in the hRpn11 strain lacking UBP6 (primary screen strain), but nontoxic in a strain containing UBP6 and harboring inactivating point mutations in hRpn11 (counterscreening strain) (FIG. 2B). By measuring cell growth in the presence of potential inhibitors using any commercially available plate reader, a high throughput cell-based screen for compounds selectively inhibiting hRpn11 can be enacted.
(§2) Many high throughput screens include a library of chemical compounds having different solubility in different solvents. A common solvent used to solve this issue is dimethyl sulfoxide (“DMSO”). However, DMSO can be toxic to biological cells. Thus, it is advantageous if the biological cell is resistant to levels of DMSO which are used to dissolve compounds in a library. […]
(§3) In a fourth example, yeast strains were evaluated for tolerance of a commonly used solvent in high throughput screens. […] Cell density was monitored over 24 hours as an indicator of cell growth.

In series [2] the test system is counterscreen strain (yeast with UBP6 intact). Kind of series: DMSO tolerance of the counterscreen yeast strain, growth in microtiter plates. In kind it is cell-based, Saccharomyces cerevisiae. The conditions noted are these: counterscreen strain (FIG. 4B); concentrations of DMSO up to 1%; cell density monitored over 24 hours; sextuplicate.
Text: as §1, §2, §3
(A counterscreen serves to expose hits that act by an unwanted route or on another target.)

Turning to `C[S+](C)[O-]` [DMSO, dimethylsulfoxide], the “differences in growth rate, time to saturation, or saturation cell density” value in series [1] and in series [2] was “No statistical differences” throughout.

The values are drawn from patent US10676519B2, “Chimeric proteins and their use in identifying anti-deubiquitinase compounds” (The Florida State University Research Foundation, Inc., priority 2017, dated 2020).
